# Assay results: ChEMBL document CHEMBL1687783, “Prevalence and dissemination of oqxAB in Escherichia coli isolates from animals, farmworkers, and the environment” (2010)
# Assays:
# Escherichia coli [1] = experiment: Antimicrobial activity against oqxAB positive Escherichia coli C600 W191-T transconjugant by CLSI agar dilution method; format: functional
# Escherichia coli [2] = experiment: Antimicrobial activity against Escherichia coli C600 ST2-T transconjugant harboring oqxAB, qnrB6 and aac(6')-Ib-cr genes by CLSI agar dilution method; format: functional
# Escherichia coli [3] = experiment: Antimicrobial activity against oqxAB positive Escherichia coli C600 W322-T transconjugant by CLSI agar dilution method; format: functional
# Escherichia coli [4] = experiment: Antimicrobial activity against oqxAB positive Escherichia coli C600 SP8-T transconjugant by CLSI agar dilution method; format: functional
# Escherichia coli [5] = experiment: Antimicrobial activity against oqxAB positive Escherichia coli C600 D83-T transconjugant by CLSI agar dilution method; format: functional
# Escherichia coli [6] = experiment: Antimicrobial activity against oqxAB positive Escherichia coli C600 W281-T transconjugant by CLSI agar dilution method
# Escherichia coli [7] = experiment: Antimicrobial activity against oqxAB positive Escherichia coli C600 G062-T transconjugant by CLSI agar dilution method
# Escherichia coli [8] = experiment: Antimicrobial activity against Escherichia coli DH5[alpha] by CLSI agar dilution method
# Escherichia coli [9] = experiment: Antimicrobial activity against oqxAB positive Escherichia coli C600 G262-T transconjugant by CLSI agar dilution method
# Escherichia coli [10] = experiment: Antimicrobial activity against oqxAB positive Escherichia coli C600 SW8-T transconjugant by CLSI agar dilution method; format: functional
# Escherichia coli [11] = experiment: Antimicrobial activity against oqxAB positive Escherichia coli C600 W245-T transconjugant by CLSI agar dilution method; format: functional
# Escherichia coli [12] = experiment: Antimicrobial activity against oqxAB positive Escherichia coli C600 XT11-T transconjugant by CLSI agar dilution method
# Escherichia coli [13] = experiment: Antimicrobial activity against oqxAB positive Escherichia coli C600 X1B1-T transconjugant by CLSI agar dilution method
# Escherichia coli [14] = experiment: Antimicrobial activity against Escherichia coli C600 by CLSI agar dilution method
# Escherichia coli [15] = experiment: Antimicrobial activity against oqxAB positive Escherichia coli C600 G375-T transconjugant by CLSI agar dilution method; format: functional
# Escherichia coli [16] = experiment: Antimicrobial activity against oqxAB positive Escherichia coli DH5[alpha] harboring pMD18-T::oqxAB by CLSI agar dilution method; format: functional
SMILES,MIC (Escherichia coli [1]) [µg/mL],MIC (Escherichia coli [2]) [µg/mL],MIC (Escherichia coli [3]) [µg/mL],MIC (Escherichia coli [4]) [µg/mL],MIC (Escherichia coli [5]) [µg/mL],MIC (Escherichia coli [6]) [µg/mL],MIC (Escherichia coli [7]) [µg/mL],MIC (Escherichia coli [8]) [µg/mL],MIC (Escherichia coli [9]) [µg/mL],MIC (Escherichia coli [10]) [µg/mL],MIC (Escherichia coli [11]) [µg/mL],MIC (Escherichia coli [12]) [µg/mL],MIC (Escherichia coli [13]) [µg/mL],MIC (Escherichia coli [14]) [µg/mL],MIC (Escherichia coli [15]) [µg/mL],MIC (Escherichia coli [16]) [µg/mL]
CC1(C)S[C@@H]2[C@H](NC(=O)[C@H](N)c3ccccc3)C(=O)N2[C@H]1C(=O)O [AMPICILLIN],> 128,4,> 128,> 128,16,> 128,> 128,> 128,8,> 128,> 128,> 128,16,4,16,–
CCn1cc(C(=O)O)c(=O)c2ccc(C)nc21 [NALIDIXIC ACID],16,256,64,32,8,16,32,2,16,64,16,16,16,2,64,32
CS(=O)(=O)c1ccc([C@@H](O)[C@@H](CF)NC(=O)C(Cl)Cl)cc1 [FLORFENICOL],16,4,16,16,8,16,16,4,16,16,16,16,16,2,16,16
CCn1cc(C(=O)O)c(=O)c2cc(F)c(N3CCNCC3)cc21 [NORFLOXACIN],0.125,4,0.25,0.125,0.125,0.125,0.125,0.03,0.25,0.5,0.125,0.25,0.125,0.03,0.25,0.25
CCN1CCN(c2cc3c(cc2F)c(=O)c(C(=O)O)cn3C2CC2)CC1 [ENROFLOXACIN],0.125,2,0.125,0.06,0.06,0.06,0.125,0.016,0.125,0.125,0.06,0.06,0.125,0.016,0.125,0.125
Cc1c(C(=O)NCCO)[n+]([O-])c2ccccc2[n+]1[O-] [OLAQUINDOX],256,512,512,256,256,128,256,8,256,512,512,256,256,8,256,128
